From patent publication US7427625B2, “Substituted thiatriazaacenaphthylene-6-carbonitrile kinase inhibitors” (Janssen Pharmaceutica, N.V., priority 2006, dated 2008) come the findings set out here.

In one test the target is T1, HER-2 (Homo sapiens, UniProt P04626).
T1 construct: the nucleotides encoding amino acids 679 to 1255 of HER-2; purchased Proqinase (Freiburg, Germany)
Nature of the test: HER-2 Kinase Assay. Type of test: biochemical. The following applies: for inhibition at 1 µM: test concentration of 1 μM, read-out: HER-2 percent inhibition. The method, then:
HER-2 kinase was purified at Proqinase (Freiburg, Germany) from a construct that consisted of a fusion of GST (Glutathione-S-Transferase), HIS6-Thrombin and the nucleotides encoding amino acids 679 to 1255 of HER-2.
A mixture of a 10× kinase reaction buffer (600 mM Hepes at pH 7.5, 30 mM Magnesium Chloride, 0.03 mM Sodium Vanadate and 500 μg/mL PEG 20,000), DTT (1.2 mM final from a 10 mM stock), ATP (1 μM from a 10 mM stock), biotinylated polyGluTyr (1.5 ng/μL final from stock of 1 μg/μL prepared by Upstate Biotechnologies, Lake Placid, N.Y.), Manganese Chloride (3 mM final from a 1 M stock), γ-^33P-ATP (10 μCi/μL stock) and water (70 μL/well) was added to each well of a Streptavidin Flashplate (Cat. #SMP103, NEN, Boston, Mass.).
Test compound stock (1 μL) was added to the appropriate wells. Diluted GSTHER2 kinase (6.7 ng/μL diluted into 50 mM Tris-HCl at pH 8.0 and 0.1% bovine serum albumin) (30 μL) was added (total volume of 200 ng/well) to initiate the reactions.
The reaction plates were incubated at 30° C. for 1 hr. The reaction was terminated by aspiring the reaction mixture from the plate wells and washing the wells three times with a 1×PBS stop buffer (300 μL) and 100 mM EDTA. After the final wash, the same stop buffer (200 μL) was again added to the wells. The plates were then sealed and read on the TopCount scintillation counter.
(§1) The IC50 was derived according to the procedure described in Example 2. For those compounds without an IC50, the percent inhibition results are shown at a test concentration of 1 μM.

A further test concerns the target T2, VEGF-R2 (Rattus norvegicus, UniProt O08775).
T2 construct: polyhistidine (N)
Description: VEGF-R2 Screening Assay. The following applies: test concentration of 1 μM; read-out: VEGF-R2 percent inhibition. Type of test: biochemical. The method, then: (§2) A kinase reaction mixture was prepared containing 50 mM Tris-HCl at pH 8, 10 mM, MgCl20.1 mM […], 1 mM DTT, 10 μM ATP, 0.025 μM biotinylated histone-H1 peptide substrate and 0.2 μCuries per well ^33P-γ-ATP (2000-3000 Ci/mmol). 70 μL of the kinase reaction mixture was dispensed into the well of a Streptavidin FlashPlate.
(§3) Test compound stock in 100% DMSO (1 μL) was added to the wells resulting in a final concentration of 1% DMSO in the reaction with a 100 μL final reaction volume. Each enzyme was diluted in 50 mM Tris-HCl pH=8.0, 0.1% BSA and 30 μL was added to each well to initiate the reaction. The reaction was incubated for one hour at 30° C. At the end of the 1 hr incubation, the reaction was terminated by aspirating the mixture from the plate and washing the wells twice with PBS containing 100 mM EDTA. The biotinylated peptide substrate became immobilized on the Flashplate^198 and the incorporation of ^33P-γ-ATP was measured by reading the plate on a scintillation counter. Inhibition of the enzymatic activity was measured by observing a reduced amount of ^33P-γ-ATP incorporated into the immobilized peptide.
The VEGF-R2 enzyme is a fusion protein containing a polyhistidine tag at the N terminus followed by amino acids 786 to 1343 of the rat VEGF-R2 kinase domain (Accession number U93306). The assay used 150 ng of the N-terminal biotinylated peptide biotin-KHKKLAEGSAYEEV-amide (VEGF-R2) per well.
as §1

A further test concerns the target T3, Aurora-A (Mus musculus, UniProt P97477).
T3 construct: followed by the full length protein encoding the murine Aurora-A; polyhistidine (N); made in house; host or cells: sf9 insect cells
T3 sequence (P97477 1-395): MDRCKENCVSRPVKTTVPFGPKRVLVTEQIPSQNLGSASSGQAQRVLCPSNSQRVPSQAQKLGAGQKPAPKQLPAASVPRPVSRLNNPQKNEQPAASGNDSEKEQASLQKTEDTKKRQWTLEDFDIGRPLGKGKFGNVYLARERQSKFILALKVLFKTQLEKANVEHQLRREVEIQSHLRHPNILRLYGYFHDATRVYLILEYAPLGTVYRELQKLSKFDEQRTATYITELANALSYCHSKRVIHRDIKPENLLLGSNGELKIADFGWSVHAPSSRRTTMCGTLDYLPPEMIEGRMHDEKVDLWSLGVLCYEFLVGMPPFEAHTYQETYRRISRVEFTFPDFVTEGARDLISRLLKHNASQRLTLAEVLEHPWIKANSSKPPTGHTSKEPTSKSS
Description: Aurora-A Screening Assay. Type of test: biochemical, murine. The following applies: test concentration of 1 μM; read-out: Aurora-A percent inhibition. The procedure:
as §2, §3
Aurora-A is a fusion protein containing a polyhistidine tag at the N terminus followed by the full length protein encoding the murine Aurora-A (Accession number GB BC014711) expressed and purified from sf9 insect cells. The assay used 400 ng of the N-terminal biotinylated peptide biotin-GRTGRRNSI-amide (Aurora-A) per well.
as §1

A further test deals with T4, EGFR (Homo sapiens, UniProt P00533).
T4 construct: The intracellular portion of EGFR started at nucleotide 2189 (corresponding to amino acid 667) and ended at the termination codon; made in house; host or cells: Sf9 insect cells (baculovirus)
Description: EGFR Kinase Assay. Type of test: biochemical. The settings on record: for inhibition at 2 µM: test concentration of 2 μM, read-out: EGFR percent inhibition. The source says: The EGFR kinase used was a fusion of Glutathione-S-Transferase (GST) and a PCR amplified intracellular portion of EGFR (NM_005228). The intracellular portion of EGFR started at nucleotide 2189 (corresponding to amino acid 667) and ended at the termination codon. The portion was PCR amplified with primers that added the lambda attB sequences to each end, recombined into an entry vector, then into a GST destination vector (as described in Gateway Technologies Manual by Invitrogen Corporation, Carlsbad, Calif.).
The destination vector was recombined in the DH10BAC strain of bacteria to produce a bacmid. The bacmid was transfected into Sf 9 cells and the supernatant containing the baculovirus was collected. The GSTEGFR protein was purified using large cultures of Sf 9 cells infected with stock virus. After an appropriate period of time, the cells were collected and lysed. The GSTEGFR was then purified from the lysate on Glutathione-Sepharose columns (as described by Amersham Biosciences, Buckinghamshire, United Kingdom).
The EGFR substrate was prepared by biotinylating polyGluTyr (128 mg) (Sigma, St. Louis, Mo.) in a 1×PBS buffer incubated together with a 12-fold molar excess of Sulfo-NHS-LC-Biotin on ice for at least 2 hrs. The free biotin was separated from the biotinylated polyGluTyr on a gel filtration column.
A mixture of a 10× kinase buffer (500 mM Tris at pH 8.0, 100 mM Magnesium Chloride and 1 mM Sodium Vanadate), DTT (1 mM final from 500 mM stock), ATP (5 μM final from 10 mM stock), biotinylated polyGluTyr (10 μg/μL stock), γ-^33P ATP (10 μCi/μL stock) and water was added to each well (90 μL/well) of a Streptavidin Flashplate (Perkin Elmer, Wellesley, Mass.).
Test compound in 100% DMSO (2 μL) was added to the appropriate wells. Diluted GSTEGFR (1:300 dilution in 50 mM Tris at pH 8.0 and 0.1% bovine serum albumin) (10 μL) was added to the wells to initiate the reactions.
The plates were incubated at 30° C. for 1 hr with shaking. The reacted contents were removed and the plates were sequentially washed three times with a 1×PBS stop buffer (300 μL without Magnesium and Calcium) and 100 mM EDTA. After the final wash, the same stop buffer (200 μL) was added to the wells. The plates were then sealed and read on the TopCount scintillation counter.
Test compounds were assayed in triplicate at 16 concentrations at half-log dilutions starting at 200 uM. A maximum and minimum signal for the assay was determined on each plate. The percent inhibition of a test compound was calculated according to the formula
For a series of test concentrations, the IC50 was derived by graphing percent inhibition against the log of the concentrations tested for a given compound. For those compounds without an IC50, the percent inhibition results are shown at a test concentration of 2 μM.

By pIC50 is commonly meant −log10 of the IC50, conventionally taken in molar units. The inhibition is the relative decrease from the control value, in per cent.

pIC50: −log10 of the molar value.

T2 sequence (O08775 786-1343): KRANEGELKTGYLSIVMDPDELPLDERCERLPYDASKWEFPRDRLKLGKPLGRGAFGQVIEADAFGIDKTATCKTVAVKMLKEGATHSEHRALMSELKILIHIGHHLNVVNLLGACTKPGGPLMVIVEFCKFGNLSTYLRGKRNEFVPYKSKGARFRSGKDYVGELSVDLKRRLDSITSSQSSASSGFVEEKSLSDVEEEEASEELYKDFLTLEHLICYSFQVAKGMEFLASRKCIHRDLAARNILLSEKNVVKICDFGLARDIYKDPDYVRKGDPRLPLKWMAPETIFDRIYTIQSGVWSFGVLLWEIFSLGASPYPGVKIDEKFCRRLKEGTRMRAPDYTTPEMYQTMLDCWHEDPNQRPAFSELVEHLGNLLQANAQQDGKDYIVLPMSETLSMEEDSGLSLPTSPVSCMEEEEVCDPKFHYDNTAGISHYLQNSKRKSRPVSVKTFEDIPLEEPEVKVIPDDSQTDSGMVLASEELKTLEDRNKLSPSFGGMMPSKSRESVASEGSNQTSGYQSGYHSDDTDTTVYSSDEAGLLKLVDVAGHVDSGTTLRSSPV
T1 sequence (P04626 679-1255): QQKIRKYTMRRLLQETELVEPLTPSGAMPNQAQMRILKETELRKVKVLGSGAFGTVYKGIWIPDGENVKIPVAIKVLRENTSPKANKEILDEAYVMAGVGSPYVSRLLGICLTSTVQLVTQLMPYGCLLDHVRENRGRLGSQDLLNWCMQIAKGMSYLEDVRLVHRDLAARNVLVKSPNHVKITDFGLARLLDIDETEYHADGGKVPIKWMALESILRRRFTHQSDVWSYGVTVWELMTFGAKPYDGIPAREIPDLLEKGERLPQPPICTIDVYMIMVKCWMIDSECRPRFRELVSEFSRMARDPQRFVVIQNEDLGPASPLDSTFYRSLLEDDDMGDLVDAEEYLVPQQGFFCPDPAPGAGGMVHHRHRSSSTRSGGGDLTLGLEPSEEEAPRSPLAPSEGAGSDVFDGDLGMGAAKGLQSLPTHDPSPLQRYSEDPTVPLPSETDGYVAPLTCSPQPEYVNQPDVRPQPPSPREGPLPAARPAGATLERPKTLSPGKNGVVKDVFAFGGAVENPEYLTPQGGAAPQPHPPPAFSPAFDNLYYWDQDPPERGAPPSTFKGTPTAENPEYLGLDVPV
T4 sequence (P00533 669-1210 limits assumed): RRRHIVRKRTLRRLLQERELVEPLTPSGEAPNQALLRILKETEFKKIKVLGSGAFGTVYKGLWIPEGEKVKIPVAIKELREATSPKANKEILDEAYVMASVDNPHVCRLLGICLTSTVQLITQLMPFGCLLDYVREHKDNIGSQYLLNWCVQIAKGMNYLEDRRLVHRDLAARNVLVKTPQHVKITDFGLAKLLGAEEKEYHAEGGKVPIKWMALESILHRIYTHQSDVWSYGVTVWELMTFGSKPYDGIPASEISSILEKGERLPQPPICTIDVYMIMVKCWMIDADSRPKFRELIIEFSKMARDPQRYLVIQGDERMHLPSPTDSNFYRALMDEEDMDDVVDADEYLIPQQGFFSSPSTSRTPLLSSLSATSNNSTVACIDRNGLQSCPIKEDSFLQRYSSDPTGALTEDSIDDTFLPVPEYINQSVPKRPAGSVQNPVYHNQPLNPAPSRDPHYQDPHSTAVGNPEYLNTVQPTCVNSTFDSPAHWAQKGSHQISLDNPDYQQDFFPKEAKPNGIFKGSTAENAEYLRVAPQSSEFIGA

With `N#Cc1cnc2sc(C(=O)Nc3ccc(CN4CCC(F)CC4)cc3)c3c2c1N(c1c(Cl)ccc2c1OCO2)C(=O)N3` [Cpd 26, 5-(5-chloro-benzo[1,3]dioxol-4-yl)-6-cyano-4-oxo-4,5-dihydro-3H-1-thia-3,5,8-triaza-acenaphthylene-2-carboxylic acid [4-(4-fluoro-piperidin-1-ylmethyl)-phenyl]-amide], the pIC50 at HER-2 is less than 6.00; against EGFR, 5.69. Moreover, the inhibition at 1 µM amounted to 11% on VEGF-R2 and 23% at Aurora-A.

Consider `CN(C)c1cc(NC(=O)c2sc3ncc(C#N)c4c3c2NC(=O)N4c2c(Cl)ccc3c2OCO3)ccc1CN1CCOCC1` [Cpd 27, 5-(5-chloro-benzo[1,3]dioxol-4-yl)-6-cyano-4-oxo-4,5-dihydro-3H-1-thia-3,5,8-triaza-acenaphthylene-2-carboxylic acid (3-dimethylamino-4-morpholin-4-ylmethyl-phenyl)-amide], for which the figures for the inhibition at 1 µM on HER-2, at VEGF-R2 and at Aurora-A were 0%, 7% and 16%, respectively. Besides, the inhibition at 2 µM at EGFR amounted to 34%.

For `N#Cc1cnc2sc(C(=O)N3CCC(O)CC3)c3c2c1N(c1c(Cl)ccc2c1OCO2)C(=O)N3` [Cpd 28, 5-(5-chloro-benzo[1,3]dioxol-4-yl)-2-(4-hydroxy-piperidine-1-carbonyl)-4-oxo-4,5-dihydro-3H-1-thia-3,5,8-triaza-acenaphthylene-6-carbonitrile], the inhibition at 1 µM on HER-2 is 35%; on VEGF-R2, 15%; on Aurora-A, 25%. For the same compound, the inhibition at 2 µM on EGFR is 9%.

In the case of `CN(C(=O)c1sc2ncc(C#N)c3c2c1NC(=O)N3c1c(Cl)ccc2c1OCO2)c1ccc(CN2CCOCC2)cc1` [Cpd 29, 5-(5-chloro-benzo[1,3]dioxol-4-yl)-6-cyano-4-oxo-4,5-dihydro-3H-1-thia-3,5,8-triaza-acenaphthylene-2-carboxylic acid methyl-(4-morpholin-4-ylmethyl-phenyl)-amide], the inhibition at 1 µM came out at 0% at HER-2, 10% on VEGF-R2 and 13% at Aurora-A. Besides, the inhibition at 2 µM at EGFR worked out at 2%.

Consider `N#Cc1cnc2sc(C(=O)Nc3ccc(NCCCN4CCOCC4)nc3)c3c2c1N(c1c(Cl)ccc2c1OCO2)C(=O)N3` [Cpd 30, 5-(5-chloro-benzo[1,3]dioxol-4-yl)-6-cyano-4-oxo-4,5-dihydro-3H-1-thia-3,5,8-triaza-acenaphthylene-2-carboxylic acid [6-(3-morpholin-4-yl-propylamino)-pyridin-3-yl]-amide], for which the inhibition at 1 µM on HER-2 turned out to be 35%; at VEGF-R2 it was 12%; at Aurora-A it was 22%. Further, the inhibition at 2 µM on EGFR came out at 11%.

Consider `COc1cc(NC(=O)c2sc3ncc(C#N)c4c3c2NC(=O)N4c2c(Cl)ccc3c2OCO3)ccc1OCCN1CCCCC1` [Cpd 31, 5-(5-chloro-benzo[1,3]dioxol-4-yl)-6-cyano-4-oxo-4,5-dihydro-3H-1-thia-3,5,8-triaza-acenaphthylene-2-carboxylic acid [3-methoxy-4-(2-piperidin-1-yl-ethoxy)-phenyl]-amide], for which the inhibition at 1 µM was found to be 35% on HER-2, 17% at VEGF-R2 and 22% on Aurora-A. This compound had a pIC50 on EGFR of 6.29.

As to `CN1CCCCC1COc1ccc(NC(=O)c2sc3ncc(C#N)c4c3c2NC(=O)N4c2c(Cl)ccc3c2OCO3)cc1` (centres unmarked) [Cpd 32, 5-(5-chloro-benzo[1,3]dioxol-4-yl)-6-cyano-4-oxo-4,5-dihydro-3H-1-thia-3,5,8-triaza-acenaphthylene-2-carboxylic acid [4-(1-methyl-piperidin-2-ylmethoxy)-phenyl]-amide], the inhibition at 1 µM at HER-2 is 22%; on VEGF-R2 it was 1%; on Aurora-A, 13%. Also, the inhibition at 2 µM on EGFR is 35%.

In the case of `N#Cc1cnc2sc(C(=O)Nc3cc[nH]n3)c3c2c1N(c1c(Cl)ccc2c1OCO2)C(=O)N3` [Cpd 33, 5-(5-chloro-benzo[1,3]dioxol-4-yl)-6-cyano-4-oxo-4,5-dihydro-3H-1-thia-3,5,8-triaza-acenaphthylene-2-carboxylic acid (1H-pyrazol-3-yl)-amide], the figures for the inhibition at 1 µM at HER-2, at VEGF-R2 and on Aurora-A were 37%, 18% and 29%, respectively. The same compound gave a pIC50 against EGFR of 5.91.
